Laboratory results reported in patent US6699681B2, “Endothelin converting enzymes and the amyloid β peptide” (Mayo Foundation for Medical Education and Research, priority 2000, dated 2004).
Entries after “also recorded” stand apart in the source; their conditions may differ.

Legend:
H4 neuroglioma cells = test: Extracellular Aβ after treatment of H4 cells with metalloprotease inhibitors; assay type: cell-based, human
Method: (§1) Human and guinea pig Aβ40 or Aβ42 was measured in plasma by sandwich ELISA as previously described (Suzuki et al., 1994, Science, 264:1336-1340) using the BAN-50/BA-27 or BAN-50/BC-05 antibody systems, respectively (Takeda; Japan). Hamster Aβ40- or Aβ42-derived from CHO cells was measured using the BNT-77/BA-27 or BNT-77/BC-05 antibody systems, respectively. Aβ concentration in samples was determined by comparison to synthetic Aβ40 or Aβ42 standards (Bachem, Switzerland). Data was obtained from triplicate wells.
(§2) In particular, the sandwich ELISA used herein was performed as follows: 96-well microtiter plates were coated overnight at 4° C. with 100 μl of a 5 μg/ml dilution of primary antibody in sodium carbonate coating buffer (SCCB; 0.1 M Na2CO3, pH 9.6). Plates were blocked overnight at 4° C. with 300 μl of BLOCKAGE Solution (PBS+1.0% BLOCKAGE (Snow Brand Milk Products, Japan), 0.05% NaN3, pH 7.4). Samples for analysis and synthetic Aβ standards (Bachem, Switzerland) were diluted in buffer EC (0.02 M NaH2PO4, 0.002 M EDTA, 0.4 M NaCl, 0.2% BSA, 0.05% CHAPS, 0.04% BLOCKAGE, 0.05% NaN3, pH 7.0) and allowed to incubate on the plates overnight at 4° C. Plates were washed twice with PBS (8 mM Na2HPO4, 1.5 mM KH2PO4, 139 mM NaCl, 2.7 mM KCl, pH 7.4) and 100 μl of secondary antibody directly coupled to HRP (EZ-LINK™ Plus Activated Peroxidase kit (contents of kit: peroxidase, 5 M sodium cyanoborohydride solution (NaBH3CN), quenching buffer (3 M ethanolamine, pH 9.0), BupH™ phosphate buffered saline, Buph™ carbonate-bicarbonate buffer), according to manufacturers directions; Pierce Chemical Co., Rockford, Ill.) was allowed to bind either 4 hrs at room temperature or overnight at 4° C. Plates were then washed twice with PBS containing 0.05% Tween 20 followed by two additional washes in PBS. Detection was performed using TMB (3,3′,5,5′-tetramethyl-benzidine) as an HRP substrate according to the manufacturer's specifications (Kirkegaard & Perry Laboratories (KPL), Gaithersburg, Md.) and the reaction stopped by the addition of 100 μl of 1N H3PO4. Plates were read at 450 nm in a SpectraMax Plus spectrophotometer (Molecular Devices; Sunnyvale, Calif.) and analyzed by SOFTmax® PRO software. Aβ40 or Aβ42 were quantitated by comparison with the values obtained for each synthetic Aβ standard from the same plate.
Cells were passaged into 6-well plates one day prior to treatment and grown to confluence. […] After treatment, the culture medium was harvested, spun at 14,000 xg, and the supernatant analyzed for Aβ40 or Aβ42 using sandwich ELISA and for secreted APP using Western blot. […] Bound antibody was detected by incubation with the appropriate HRP-linked secondary antibody (Amersham, Uppsala, Sweden) using ECL™ Western blotting reagents (Amersham) followed by exposure to X-ray film. […]

[1] = tested on: ECE-transfected CHO cells; test: Aβ concentration in conditioned medium of ECE-1a- or ECE-1b-transfected CHO cells; assay type: cell-based, hamster
Method: as §1
as §2, with “Detection was performed using TMB (3,3′,5,5′-tetramethyl-benzidine) as an HRP substrate according to the manufacturer's specifications (Kirkegaard & Perry Laboratories (KPL), Gaithersburg, Md.) and the reaction stopped by the addition of 100 μl of 1N H3PO4.” left out, “plate. […]” for “plate.”

CHO cells = test: Aβ in conditioned medium of CHO cells (lack ECE activity) treated with phosphoramidon; assay type: cell-based, hamster; settings: non-transfected CHO cells; high concentrations of phosphoramidon
Method: as §1
In particular, the sandwich ELISA used herein was performed as follows: 96-well microtiter plates were coated overnight at 4° C. with 100 μl of a 5 μg/ml dilution of primary antibody in sodium carbonate coating buffer (SCCB; 0.1 M Na2CO3, pH 9.6). […] Plates were read at 450 nm in a SpectraMax Plus spectrophotometer (Molecular Devices; Sunnyvale, Calif.) and analyzed by SOFTmax® PRO software. Aβ40 or Aβ42 were quantitated by comparison with the values obtained for each synthetic Aβ standard from the same plate.
Cells were passaged into 6-well plates one day prior to treatment and grown to confluence. […] After treatment, the culture medium was harvested, spun at 14,000 xg, and the supernatant analyzed for Aβ40 or Aβ42 using sandwich ELISA and for secreted APP using Western blot. […]

## CC(C)C[C@H](NP(=O)(O)O[C@@H]1O[C@@H](C)[C@H](O)[C@@H](O)[C@H]1O)C(=O)N[C@@H](Cc1c[nH]c2ccccc12)C(=O)O [phosphoramidon]
H4 neuroglioma cells; H4 cells, parallel to the spiking experiment
  Aβ accumulation in parallel culture wells without synthetic Aβ: promoting Aβ accumulation
H4 neuroglioma cells; H4 neuroglioma cells, thiorphan or captopril at concentrations greater than 1000-times the reported IC50 for the target enzymes
  extracellular Aβ accumulation: significant elevation
[1]; ECE-transfected CHO cells treated with phosphoramidon
  reversal of the reduction in Aβ concentration in ECE-transfected cells: completely reversed
[1]; parallel cultures of ECE-1a-transfected cells without synthetic Aβ, 24 hr
  phosphoramidon-induced accumulation of endogenous Aβ: greater than 600%
[1]; phosphoramidon-treated ECE-transfected CHO cells, 6 hr
  increase in secretion of endogenous Aβ: 1.5- to 2 fold
CHO cells
  concentration of Aβ in the conditioned medium: did not affect; also recorded: unaffected
